Experimental data published in patent US10682371B2, “Small molecule conjugates specifically activated in tumor microenvironment for targeting and use thereof” (priority 2014, dated 2020).

Legend:
[1] = tested on: HEK293 cells; assay type: cell-based; details: for Cytoxicity reduced (Multiple): HEK293, 72 hours, MTT, IC50 of modified compound compared to its corresponding cytotoxic compound, approximate multiples
Experimental: Toxicity detection method: a standard universal test program was used to perform the in vitro cytotoxicity test. 2500 HEK293 cells were cultured in a 96-well plate, and allowed to grow overnight. Cytotoxic compounds and their corresponding conjugated compounds were added into each well in different concentrations, cultivated with the cells at 37° C. for 72 hours, and then treated with MTT reagents. OD changes were read. The approximate multiples of the toxicity change were obtained by comparing the IC50 of the modified compounds to their corresponding cytotoxic compounds.

[2] = tested on: Human breast cancer MDA-MB231 cells; assay type: in vivo, nude mice; details: for Effect on tumor growth, in words: compared to control, camptothecin, capecitabine and daunorubicin groups
Experimental: (§1) 1) Human breast cancer MDA-MB231 cells were purchased from American type culture collection (ATCC) and identified according the specification provided by ATCC. Cells were cultivated in Dulbecco's minimum essential medium (DMEM culture medium) containing 10% fetal bovine serum at 37° C. and 5% CO2. The cells were passaged for every three days and cells within the 15th passage were used.
2) Production of tumor. 5×10^6 MDA-MB231 cells were subcutaneously injected to the back of the nude mice. Mice were randomly grouped after the tumor reached at least 100 mm^3. Then treatment began and the day on which the treatment began was day 1.
3) Course of treatment. […] The drugs were administered once weekly for four weeks.
When R1 is 2-(2-Methoxyethoxy)Acetyl, and R3 is Ala, activation study and efficacy study were carried out by using compounds having different cleavable linker. The study methods are identical to those in Examples 10, 11 and 12. The in vitro activation efficiency was tested by asparagine endopeptidase and the tumor inhibition rate was tested by using human breast cancer MDA-MB231 model. […]

[3] = tested on: Human colon cancer HT-29; assay: Multiple tumor models in nude mice: HT-29; assay type: in vivo
Experimental: as §1, with “Corresponding tumor” for “Human breast cancer MDA-MB231”, “DMEM” for “Dulbecco's minimum essential medium (DMEM”, “solution” for “medium)”
(§2) 2) Production of tumor. 5×10^6 corresponding cells were subcutaneously injected to the back of the nude mice. Mice were randomly grouped after the tumor reached at least 100 mm^3. Then treatment began and the day on which the treatment began was day 1.
(§3) 3) Course of treatment. […] The control group was administered by physiological saline. Animals were administered once weekly for three weeks.
(§4) 3) Course of treatment. According to the clinical application of A1, A1 was administered in a dose of ⅙ MTD, i.v., 17.6 μmol/kg. The control group was administered by physiological saline. Animals were administered once weekly for three weeks.
(§5) 3) Course of treatment. According to the clinical application of B1, B1 was administered in a dose of ⅙ MTD, i.v., 17.6 μmol/kg. The control group was administered by physiological saline. Animals were administered once weekly for three weeks.
as §3, §3

[4] = tested on: Human pancreatic cancer Panc-1; assay: Multiple tumor models in nude mice: Panc-1; assay type: in vivo
Experimental: as §1, with “Corresponding tumor” for “Human breast cancer MDA-MB231”, “DMEM” for “Dulbecco's minimum essential medium (DMEM”, “solution” for “medium)”
as §2, §3, §4, §5, §3, §3

[5] = tested on: Human ovarian cancer SK-OV-3; assay: Multiple tumor models in nude mice: SK-OV-3; assay type: in vivo
Experimental: as §1, with “Corresponding tumor” for “Human breast cancer MDA-MB231”, “DMEM” for “Dulbecco's minimum essential medium (DMEM”, “solution” for “medium)”
as §2, §3, §4, §5, §3, §3

[6] = Multiple tumor models in nude mice: HT1080; assay type: in vivo; details: Human colon caner HT1080
Experimental: as §1, with “Corresponding tumor” for “Human breast cancer MDA-MB231”, “DMEM” for “Dulbecco's minimum essential medium (DMEM”, “solution” for “medium)”
as §2, §3, §4, §5, §3, §3

[7] = tested on: Human non-small cell lung cancer A549; assay: Multiple tumor models in nude mice: A549; assay type: in vivo
Experimental: as §1, with “Corresponding tumor” for “Human breast cancer MDA-MB231”, “DMEM” for “Dulbecco's minimum essential medium (DMEM”, “solution” for “medium)”
as §2, §3, §4, §5, §3, §3

[8] = tested on: Human chronic leukemia K562; assay: Multiple tumor models in nude mice: K562; assay type: in vivo
Experimental: as §1, with “Corresponding tumor” for “Human breast cancer MDA-MB231”, “DMEM” for “Dulbecco's minimum essential medium (DMEM”, “solution” for “medium)”
as §2, §3, §4, §5, §3, §3

[9] = tested on: Human renal cancer OS-RC-2; assay: Multiple tumor models in nude mice: OS-RC-2; assay type: in vivo
Experimental: as §1, with “Corresponding tumor” for “Human breast cancer MDA-MB231”, “DMEM” for “Dulbecco's minimum essential medium (DMEM”, “solution” for “medium)”
as §2, §3, §4, §5, §3, §3

[10] = MDA-MB231, nude mice, IV 13.2 μmol/kg once weekly for four weeks, Day 10
[11] = MDA-MB231, nude mice, IV 13.2 μmol/kg once weekly for four weeks, Day 24
[12] = S1′ i.v. 17.6 μmol/kg once weekly for three weeks
[13] = Table 29, i.v. 17.6 μmol/kg once weekly for three weeks
[14] = Table 41, i.v. 17.6 μmol/kg once weekly for three weeks
[15] = Table 51, 25 mg/kg once weekly for three weeks

4-N—(N—(N—(N-(6-maleimido caproyl)-L-alanyl)-L-alanyl)-L-asparaginyl)-amino benzyl alcohol-MMAE-carbamate [Compound S6]
Cytoxicity reduced (Multiple) [1]: 35 Multiple | Cytoxicity reduced (Multiples) ([1]; different cleavable linkers of MMAE and Doxorubicin): 35 Multiples | Inhibitory rate on tumor (%) Day 10 [2, 10]: 23% | Size of tumor (mm^3) Day 10 [2, 10]: 235.5 ± 56.3 mm^3 | Inhibitory rate on tumor (%) Day 24 [2, 11]: 45.3% | Effect on tumor growth, in words [2]: less efficacy | tumor inhibition rate (%) ([2]; human breast cancer MDA-MB231 model, different cleavable linkers): 45.4%

COCCOCC(=O)N[C@H](C)C(=O)N[C@H](C)C(=O)N[C@H](CC(N)=O)C(=O)Nc1ccc(COC(=O)OC(C(=O)OC2C[C@@]3(O)C(OC(=O)c4ccccc4)[C@@H]4C5(OC(C)=O)COC5C[C@H](O)[C@@]4(C)C(=O)[C@H](OC(C)=O)C(=C2C)C3(C)C)[C@@H](NC(=O)c2ccccc2)c2ccccc2)cc1 (stereo in doubt) [S1′, 2-(2-methoxyethoxy) acetylamino-L-Ala-L-Ala-L-Asn-p-amino-benzyl-paclitaxel]
inhibitory rate on tumor (Day 26) [3, 12]: 89.7% | inhibitory rate on tumor (Day 26) [4, 12]: 88.59% | inhibitory rate on tumor (Day 26) [5, 12]: 85.6% | inhibitory rate on tumor (Day 26) [6, 12]: 94.3% | inhibitory rate on tumor (Day 26) [7, 12]: 94.6% | inhibitory rate on tumor (Day 26) [8, 12]: 77.9% | inhibitory rate on tumor (Day 26) [9, 12]: 85.7%

COCCOCC(=O)NCCCC[C@H](NC(=O)COCCOC)C(=O)N[C@H](C)C(=O)N[C@H](C)C(=O)N[C@H](CC(N)=O)C(=O)Nc1ccc(COC(=O)OC(C(=O)OC2C[C@@]3(O)[C@@H](OC(=O)c4ccccc4)[C@H]4[C@](C)(C(=O)[C@H](OC(C)=O)C(=C2C)C3(C)C)[C@@H](O)CC2OC[C@]24OC(C)=O)[C@@H](NC(=O)c2ccccc2)c2ccccc2)cc1 (stereo partly shown) [Compound A1]
inhibitory rate on tumor (Day 26) [3, 13]: 87.5% | inhibitory rate on tumor (Day 26) [4, 13]: 89.2% | inhibitory rate on tumor (Day 26) [5, 13]: 84.4% | inhibitory rate on tumor (Day 26) [6, 13]: 95.6% | inhibitory rate on tumor (Day 26) [7, 13]: 95.3% | inhibitory rate on tumor (Day 26) [8, 13]: 76.9% | inhibitory rate on tumor (Day 26) [9, 13]: 86.6%

COCCOCC(=O)NCCCC[C@H](NC(=O)COCCOC)C(=O)N[C@H](C)C(=O)N[C@H](C)C(=O)N[C@H](CC(N)=O)C(=O)Nc1ccc(COC(=O)OC(C(=O)OC2C[C@@]3(O)[C@@H](OC(=O)c4ccccc4)[C@H]4[C@](C)(C(=O)[C@H](O)C(=C2C)C3(C)C)[C@@H](O)CC2OC[C@]24OC(C)=O)[C@@H](NC(=O)OC(C)(C)C)c2ccccc2)cc1 (stereo partly shown) [Compound B1]
inhibitory rate on tumor (Day 26) [3, 14]: 74.56% | inhibitory rate on tumor (Day 26) [4, 14]: 73.56% | inhibitory rate on tumor (Day 26) [5, 14]: 74.67% | inhibitory rate on tumor (Day 26) [6, 14]: 84.46% | inhibitory rate on tumor (Day 26) [7, 14]: 74.56% | inhibitory rate on tumor (Day 26) [8, 14]: 72.56% | inhibitory rate on tumor (Day 26) [9, 14]: 86.67%

COCCOCC(=O)N[C@H](C)C(=O)N[C@H](C)C(=O)N[C@H](CC(N)=O)C(=O)Nc1ccc(COC(=O)OC(C(=O)OC2C[C@@]3(O)[C@@H](OC(=O)c4ccccc4)[C@H]4[C@](C)(C(=O)[C@H](O)C(=C2C)C3(C)C)[C@@H](O)CC2OC[C@]24OC(C)=O)[C@@H](NC(=O)OC(C)(C)C)c2ccccc2)cc1 (stereo partly drawn) [Compound D1, 2-(2-methoxyethoxy) acetyl-L-Ala-L-Ala-L-Asn-4-amino benzyl-Docetaxel]
inhibitory rate on tumor (Day 26) [3, 15]: 68.6% | inhibitory rate on tumor (Day 26) [4, 15]: 89.4% | inhibitory rate on tumor (Day 26) [5, 15]: 82.9% | inhibitory rate on tumor (Day 26) [6, 15]: 94.6% | inhibitory rate on tumor (Day 26) [7, 15]: 90.4% | inhibitory rate on tumor (Day 26) [8, 15]: 84.6% | inhibitory rate on tumor (Day 26) [9, 15]: 87.7%

CCCCCOC(=O)Nc1nc(=O)n([C@@H]2O[C@H](C)[C@@H](OC(=O)OCc3ccc(NC(=O)[C@H](CC(N)=O)NC(=O)[C@H](C)NC(=O)[C@H](C)NC(=O)CCCCCCC(=O)NO)cc3)[C@H]2O)cc1F [Compound S3, 4-N—(N—(N—(N-(8-(N-hydroxylamino)-1,8-octandioic acid-1-monoacyl)-L-alanyl)-L-alanyl)-L-asparaginyl)-amino benzyl alcohol-capecitabine-carbonic acid diester]
Cytoxicity reduced (Multiple) [1]: 78 Multiple | Size of tumor (mm^3) Day 10 [2, 10]: 85.67 ± 36.42 mm^3 | Size of tumor (mm^3) Day 24 [2, 11]: 0 mm^3 | Effect on tumor growth, in words [2]: strong inhibitory effect on tumor growth

COc1cccc2c1C(=O)c1c(O)c3c(c(O)c1C2=O)C[C@@](O)(C(C)=O)C[C@@H]3O[C@H]1C[C@H](NC(=O)OCc2ccc(NC(=O)[C@H](CC(N)=O)NC(=O)[C@H](C)NC(=O)[C@H](C)NC(=O)CCCCCN3C(=O)C=CC3=O)cc2)[C@H](O)[C@H](C)O1 [Compound S5, 4-N—(N—(N—(N-(6-maleimidocaproyl)-L-alanyl)-L-alanyl)-L-asparaginyl)-amino benzyl alcohol-daunorubicin-carbamate]
Cytoxicity reduced (Multiple) [1]: 125 Multiple | Size of tumor (mm^3) Day 10 [2, 10]: 63.67 ± 46.64 mm^3 | Size of tumor (mm^3) Day 24 [2, 11]: 46.45 ± 19.43 mm^3 | Effect on tumor growth, in words [2]: strong inhibitory effect on tumor growth
